This assay has as its target T1, Recombinant human DGAT2 protein (Homo sapiens, UniProt Q96PD7).
T1 construct: FLAG (DYKDDDDK); (N); made in house; host or cells: Sf-21 insect cells (BacPAK baculovirus system); used as a membrane preparation
T1 sequence (Q96PD7 1-388): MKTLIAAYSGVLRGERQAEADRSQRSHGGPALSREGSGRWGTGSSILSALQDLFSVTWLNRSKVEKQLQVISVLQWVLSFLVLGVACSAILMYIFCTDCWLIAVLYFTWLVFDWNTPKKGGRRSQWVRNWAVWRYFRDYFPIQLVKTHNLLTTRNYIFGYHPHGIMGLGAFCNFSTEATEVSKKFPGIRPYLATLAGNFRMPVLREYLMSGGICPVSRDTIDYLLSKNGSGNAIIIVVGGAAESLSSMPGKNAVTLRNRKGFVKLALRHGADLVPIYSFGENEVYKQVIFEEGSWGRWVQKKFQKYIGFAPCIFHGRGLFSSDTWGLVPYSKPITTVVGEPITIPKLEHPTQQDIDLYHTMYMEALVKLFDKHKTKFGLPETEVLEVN
Kind of assay: Measurement of inhibitory effect against DGAT2 enzyme activity (SPA, Phospholipid FlashPlate, [14C]-TG production). It is filed as biochemical. Conditions: concentration inhibiting [14C]-labeled triacyl glycerol (TG) production by 50%; 2 μg DGAT2-membrane protein from Sf-21 cells, 37° C. As to the method:
Experimental Example: Measurement of Inhibitory Effect Against DGAT2 Enzyme Activity
In order to prepare the pBacPAK9-DGAT2, which is DGAT2 expression vector, the human DGAT2 gene amplified by polymerase chain reaction (PCR) was cloned into the EcoR1 and Xho1 sites of the pBacPAK9 (clonctech) vector. The nucleotide sequence of the primers used in PCR was the forward primer 5′ […] and the reverse primer 5′ […]. The composition of the reaction solution was to contain 50 ng of cDNA clone (OriGene), 200 μM of dATP, dCTP, dTTP, dGTP, 200 nM of each primer, 1 unit of Tag DNA Polymerase (Toyobo), 1×PCR buffer, and the final volume was adjusted to 20 μl. The reaction conditions were denatured at 95° C. for 5 minutes, followed by 30 times of 94° C. for 20 seconds, 60° C. for 20 seconds, and 72° C. for 90 seconds, followed by further reaction at 72° C. for 7 minutes.
Recombinant human DGAT2 protein was expressed in Sf-21 cells, which are insect cells, by using the BacPack baculovirus expression system (Clontech). The brief manufacturing process is as follows. First, the pBacPAK9-DGAT2 expression vector was transfected with BacPAK6 virus DNA (Bsu36I digest) into sf21 cells using Bacfectin to prepare a recombinant DGAT2 expressing baculovirus. The thus prepared baculovirus was infected with Sf-21 cells at 10 MOI (multiplicity of infection), and after 72 hours, infected insect cells were collected and membrane proteins were isolated. For membrane protein separation, the cell pellet was dissolved in a sucrose solution containing 250 mM sucrose, 10 mM Tris (pH 7.4), and 1 mM ethylenediamine-tetraacetic acid (EDTA), and then homogenized by using a dounce homogenizer, and the supernatant was taken by centrifuging at 600×g for 15 minutes, and centrifuged at 100,000×g for 1 hour to discard the supernatant, and the remaining pellet was resuspended in 20 mM HEPES buffer (pH 7.4). The prepared DGAT2 overexpressing membrane protein was dispensed in 100 μl and stored at −80° C. until use. Protein concentration was quantified by using the BCA Protein Assay Kit (Thermo Scientific).
In vitro DGAT2 analysis was performed using a Phospholipid Flash Plate (PerkinElmer) based on the principle of SPA (Scintillation Proximity Assay). First, DGAT2 inhibition compounds serially diluted 5 times from 3 nM to 10 μM (final concentration, 1% DMSO) were mixed in a buffer solution containing 2 μg DGAT2-membrane protein and 20 mM HEPES, 20 mM MgCl2, 1 mg/mL BSA, 50 μM 1,2 sn-oleoyl glycerol (Sigma), put in a 96-well flash plate (FlashPlate) and reacted at 37° C. for 20 minutes, and then 1 μM [14C] ole oil CoA (PerkinElmer, NEC651050UC) was added to be a final volume of 100 μL and further reacted at 37° C. for 15 minutes. After the enzymatic reaction was completed, 100 μL of isopropanol was added, the plate was sealed with a film, and the plate was shaken slowly in a plate shaker. The next day, the amplified scintillation signal (cpm) in Topcounter (Packard) was measured to measure the degree of production of [14C]-labeled triacyl glycerol (TG) as a reaction product. The measured value when the compound was not treated was used as a positive control, and the measured value of the compound treated group was calculated as a relative % to measure the inhibition effect of the compound on TG production.

In patent US12637440B2, “Amide derivative useful as diacylglycerol acyltransferase 2 inhibitor, and use thereof” (LG CHEM, LTD., priority 2019, dated 2026) one finds IC50 data, which are given here for 25 molecules.

The structures appear in SMILES notation. pIC50: −log10 of the molar value.

Regarding `CCOc1ccccc1O[C@@H]1CCCN(c2cncc(NC(=O)CCc3ccc(OC(C)(C)C(=O)O)cc3)n2)C1` [Example 60, (R)-2-(4-(3-((6-(3-(2-ethoxyphenoxy)piperidin-1-yl)pyrazin-2-yl)amino)-3-oxopropyl)phenoxy)-2-methylpropanoic acid], the pIC50 (as a rule, the IC50 on a negative log10 scale, so that one unit is a factor of ten) was 6.38.

For `CCOc1ccccc1O[C@@H]1CCCN(c2cncc(NC(=O)C3CCN(c4ccc(C(C)(C)C(=O)O)cn4)CC3)n2)C1` [Example 81, (R)-2-(6-(4-((6-(3-(2-ethoxyphenoxy)piperidin-1-yl)pyrazin-2-yl)carbamoyl)piperidin-1-yl)pyridin-3-yl)-2-methylpropanoic acid], the pIC50 was 6.13.

For `CCOc1ccccc1O[C@@H]1CCCN(c2cncc(NC(=O)Cc3ccc(OCC(C)(C)C(=O)O)cc3)n2)C1` [Example 102], the negative logarithm of the IC50 (pIC50) was 6.35.

For the molecule `CCOc1ccccc1O[C@@H]1CCCN(c2cncc(NC(=O)C(C)(C)c3ccc(C(C)(C)C(=O)O)cc3)n2)C1` [Example 39, (R)-2-(4-(1-((6-(3-(2-ethoxyphenoxy)piperidin-1-yl)pyrazin-2-yl)amino)-2-methyl-1-oxopropan-2-yl)phenyl)-2-methylpropanoic acid], the pIC50 is 6.11.

As to `CCOc1ccccc1O[C@@H]1CCCN(c2cncc(NC(=O)CCc3ccc(N4CCC(C(=O)O)CC4)cc3)n2)C1` [Example 56, (R)-1-(4-(3-((6-(3-(2-ethoxyphenoxy)piperidin-1-yl)pyrazin-2-yl)amino)-3-oxopropyl)phenyl)piperidine-4-carboxylic acid], the pIC50 is 6.09.

Consider `CCOc1ccccc1O[C@@H]1CCCN(c2cncc(NC(=O)CCc3ccc(CC(N)=O)cc3)n2)C1` [Example 50], for which the negative logarithm of the IC50 (pIC50) is 8.02.

For the molecule `CCOc1ccccc1O[C@@H]1CCCN(c2cncc(NC(=O)Cc3ccc(OCc4ccc(C(C)(C)C(=O)O)cc4)cc3)n2)C1` [Example 107, (R)-2-(4-((4-(2-((6-(3-(2-ethoxyphenoxy)piperidin-1-yl)pyrazin-2-yl)amino)-2-oxoethyl)phenoxy)methyl)phenyl)-2-methylpropanoic acid], the pIC50 is 7.15.

As to `CCOc1ccccc1O[C@@H]1CCCN(c2nccc(NC(=O)CCc3ccc(OC(C)(C)C(=O)O)cc3)n2)C1` [Example 109, (R)-2-(4-(3-((2-(3-(2-ethoxyphenoxy)piperidin-1-yl)pyrimidin-4-yl)amino)-3-oxopropyl)phenoxy)-2-methylpropanoic acid], the pIC50 is 5.96.

On to `CCOc1ccccc1O[C@@H]1CCCN(c2cncc(NC(=O)/C(C)=C/c3ccc(C(=O)O)cc3)n2)C1` [Example 42, (R,E)-4-(3-((6-(3-(2-ethoxyphenoxy)piperidin-1-yl)pyrazin-2-yl)amino)-2-methyl-3-oxoprop-1-en-1-yl)benzoic acid], for which the pIC50 is 5.89.

On to `CCOc1ccccc1O[C@@H]1CCCN(c2cncc(NC(=O)CCc3ccccc3)n2)C1` [Example 29, (R)—N-(6-(3-(2-ethoxyphenoxy)piperidin-1-yl)pyrazin-2-yl)-3-phenylpropanamide], for which the pIC50 is 7.74.

`CCOc1ccccc1O[C@@H]1CCCN(c2cncc(NC(=O)C(C)(C)c3ccc(CCC(=O)O)cc3)n2)C1` [Example 73, (R)-3-(4-(1-((6-(3-(2-ethoxyphenoxy)piperidin-1-yl)pyrazin-2-yl)amino)-2-methyl-1-oxopropan-2-yl)phenyl)propanoic acid]: the pIC50 was 6.51.

With `CCOc1ccccc1O[C@@H]1CCCN(c2ccnc(NC(=O)Cc3ccc(CC(C)(C)C(=O)O)cc3)n2)C1` [Example 113, (R)-3-(4-(2-((4-(3-(2-ethoxyphenoxy)piperidin-1-yl)pyrimidin-2-yl)amino)-2-oxoethyl)phenyl)-2,2-dimethylpropanoic acid], the negative logarithm of the IC50 (pIC50) is 6.82.

Consider `CCOc1ccccc1O[C@@H]1CCCN(c2cncc(NC(=O)[C@@H]3CCCN(c4cccc(CC(C)(C)C(=O)O)c4)C3)n2)C1` [Example 85, 3-(3-((R)-3-((6-((R)-3-(2-ethoxyphenoxy)piperidin-1-yl)pyrazin-2-yl)carbamoyl)piperidin-1-yl)phenyl)-2,2-dimethylpropanoic acid], for which the pIC50 was 7.38.

`CCOc1ccccc1O[C@@H]1CCCN(c2cncc(NC(=O)C3CCN(S(C)(=O)=O)CC3)n2)C1` [Example 15]: the pIC50 is 7.60.

`CCOc1ccccc1O[C@@H]1CCCN(c2cncc(NC(=O)N[C@@H](Cc3ccccc3)C(=O)O)n2)C1` [Example 2, ((6-((R)-3-(2-ethoxyphenoxy)piperidin-1-yl)pyrazin-2-yl)carbamoyl)-L-phenylalanine]: the pIC50 was 4.80.

As for `CCOc1cccnc1O[C@@H]1CCCN(c2cncc(NC(=O)[C@@H]3CCCN(c4cccc(CC(C)(C)C(=O)O)c4)C3)n2)C1` [Example 76], the pIC50 is 6.89.

As to `CCOc1ccccc1O[C@@H]1CCCN(c2cncc(NC(=O)c3ccc([N+](=O)[O-])cc3)n2)C1` [Example 10, (R)—N-(6-(3-(2-ethoxyphenoxy)piperidin-1-yl)pyrazin-2-yl)-4-nitrobenzamide], the pIC50 is 7.72.

On to `CCOc1ccccc1O[C@@H]1CCCN(c2cncc(NC(=O)Cc3ccc(C[C@@H](C)C(=O)O)cc3)n2)C1` [Example 63], for which the pIC50 was 6.85.

For the molecule `CC(C)(Cc1ccc(CC(=O)Nc2cncc(N3CCC[C@@H](Oc4ccccc4OC4CC4)C3)n2)cc1)C(=O)O` [Example 95, (R)-3-(4-(2-((6-(3-(2-cyclopropoxyphenoxy)piperidin-1-yl)pyrazin-2-yl)amino)-2-oxoethyl)phenyl)-2,2-dimethylpropanoic acid], the pIC50 was 6.82.

As to `CCOc1ccccc1O[C@@H]1CCCN(c2cncc(NC(=O)Cc3ccc(OC(C)(C)C(=O)O)cc3)n2)C1` [Example 38], the negative-log IC50 (pIC50) was 6.70.

With `CC(C)Oc1ccccc1O[C@@H]1CCCN(c2cncc(NC(=O)Cc3ccc(CC(=O)O)cc3)n2)C1` [Example 90, (R)-2-(4-(2-((6-(3-(2-isopropoxyphenoxy)piperidin-1-yl)pyrazin-2-yl)amino)-2-oxoethyl)phenyl)acetic acid], the pIC50 is less than 5.00.

As to `CCOc1ccccc1O[C@@H]1CCCN(c2cncc(NC(=O)CCc3cc(F)c(C(=O)O)c(F)c3)n2)C1` [Example 53, (R)-4-(3-((6-(3-(2-ethoxyphenoxy)piperidin-1-yl)pyrazin-2-yl)amino)-3-oxopropyl)-2,6-difluorobenzoic acid], the pIC50 was 6.41.

On to `CCOc1ccccc1O[C@@H]1CCCN(c2cncc(NC(=O)Cc3ccc(O[C@@H](C)C(=O)O)cc3)n2)C1` [Example 104, (S)-2-(4-(2-((6-((R)-3-(2-ethoxyphenoxy)piperidin-1-yl)pyrazin-2-yl)amino)-2-oxoethyl)phenoxy)propanoic acid], for which the negative logarithm of the IC50 (pIC50) is 6.18.

As for `CCOc1ccccc1O[C@@H]1CCCN(c2cncc(NC(=O)Cc3ccc(C[C@H](C)C(=O)O)cc3)n2)C1` [Example 64], the pIC50 was 6.92.

Turning to `CCOc1ccccc1O[C@@H]1CCCN(c2cncc(NC(=O)Cc3ccc(CC(=O)O)cc3)n2)C1` [Example 34, (R)-2-(4-(2-((6-(3-(2-ethoxyphenoxy)piperidin-1-yl)pyrazin-2-yl)amino)-2-oxoethyl)phenyl)acetic acid], the pIC50 was 5.96.
